Common to all, as to format: functional, cell-based
Assay [1] concerns SNB-19. In words: Antitumor activity against human SNB19 cells after 24 hrs. Particulars: SNB-19, 24 h.
The subject of assay [2] is SNB-19. Kind of assay: Antitumor activity against human SNB19 cells after 2 hrs. The following applies: SNB-19, 2 h.
In assay [3] the test system is SNB-19. In words: Antitumor activity against human SNB19 cells after 48 hrs. The following applies: SNB-19, 48 h.

By IC50 is commonly meant the concentration that gives 50% inhibition. In the case of `Cc1onc(-c2c3ccccc3c(Cl)c3ccccc23)c1C(=O)NCCCN(C)CCCNC(=O)c1c(-c2c3ccccc3c(Cl)c3ccccc23)noc1C`, the IC50 in assay [1] turned out to be 23.9 µM; in assay [2] it was 114 µM; in assay [3], 30.1 µM.
